Assay: xn = mol fraction of the nth substance listed, in the solute-free solvent

O=c1cc(-c2ccccc2)oc2cc(O)c(O)c(O)c12 + CCO + O
solubility (g/100 g solution)
Settings | 283.15 K | 288.15 K | 293.15 K | 298.15 K | 303.15 K | 308.15 K | 313.15 K | 318.15 K | 323.15 K | 328.15 K
x2 = 0.2 | 0.0427 | 0.0499 | 0.0671 | 0.0809 | 0.0932 | 0.105 | 0.128 | 0.157 | 0.179 | 0.228
x2 = 0.4 | 0.194 | 0.221 | 0.262 | 0.314 | 0.372 | 0.444 | 0.554 | 0.643 | 0.73 | 0.887
x2 = 0.6 | 0.413 | 0.455 | 0.52 | 0.587 | 0.663 | 0.795 | 0.919 | 1.07 | 1.23 | 1.46
x2 = 0.8 | 0.474 | 0.525 | 0.574 | 0.634 | 0.728 | 0.831 | 0.939 | 1.08 | 1.27 | 1.51

CCc1cccc2c3c([nH]c12)C(CC)(CC(=O)O)OCC3 (centres undefined) + CCCO + CCCCCC
solubility (g/100 g solution)
Settings | 278.15 K | 283.15 K | 288.15 K | 293.15 K | 298.15 K | 303.15 K | 308.15 K | 313.15 K | 318.15 K | 323.15 K
x2 = 0.2645 | 3.73 | 4.25 | 4.84 | 5.55 | 6.34 | 7.19 | 8.14 | 9.21 | 10.4 | 11.7
x2 = 0.4889 | 7.29 | 8.31 | 9.43 | 10.8 | 12.2 | 14 | 15.9 | 18.1 | 20.6 | 23.4
x2 = 0.6827 | 10.4 | 11.8 | 13.4 | 15.2 | 17 | 19.4 | 22.2 | 25.3 | 28.6 | 31.9
x2 = 0.8514 | 12.8 | 14.4 | 16.5 | 18.7 | 21.5 | 24.5 | 27.9 | 31.4 | 35.1 | 38.5

O=C(O)c1ccc(-n2nc(-c3ccccc3O)nc2-c2ccccc2O)cc1 + CCO + CO
298.15 K
Settings | solubility (g/100 g solution)
x2 = 0.07174 | 12.7
x2 = 0.1481 | 12.9
x2 = 0.2296 | 12.8
x2 = 0.3168 | 12.7
x2 = 0.4102 | 12.5
x2 = 0.5106 | 12.2
x2 = 0.6188 | 11.9
x2 = 0.7356 | 11.5
x2 = 0.8623 | 11

N#CC(c1ccc(Cl)cc1)c1c(Cl)cc(-n2ncc(=O)[nH]c2=O)cc1Cl (centres undefined) + CN(C)C=O + CCO
solubility (g/100 g solution)
Settings | 283.15 K | 288.15 K | 293.15 K | 298.15 K | 303.15 K | 308.15 K | 313.15 K | 318.15 K | 323.15 K
x2 = 0.1361 | 3.28 | 3.86 | 4.52 | 5.25 | 6.05 | 6.91 | 7.87 | 8.89 | 9.99
x2 = 0.2959 | 5.7 | 6.56 | 7.46 | 8.51 | 9.59 | 10.8 | 12 | 13.4 | 14.7
x2 = 0.486 | 8.24 | 9.37 | 10.4 | 11.7 | 12.9 | 14.2 | 15.7 | 17.2 | 18.8
x2 = 0.716 | 10.6 | 11.8 | 12.9 | 14.3 | 15.6 | 17 | 18.5 | 20 | 21.6

Cl.NC(C=O)C(O)C(O)C(O)CO (centres undefined) + O + CCO
solubility (g/100 g solution)
Settings | 283.15 K | 288.15 K | 293.15 K | 298.15 K | 303.15 K | 308.15 K | 313.15 K | 318.15 K | 323.15 K
x2 = 0.4 | 0.614 | 0.658 | 0.736 | 0.832 | 0.899 | 0.944 | 1.08 | 1.18 | 1.27
x2 = 0.5 | 1.17 | 1.37 | 1.55 | 1.68 | 1.79 | 2.1 | 2.32 | 2.52 | 2.83
x2 = 0.6 | 2.21 | 2.56 | 2.9 | 3.34 | 3.6 | 3.91 | 4.59 | 4.86 | 5.43
x2 = 0.7 | 3.86 | 4.61 | 5.18 | 5.66 | 6.46 | 7.67 | 8.39 | 9.2 | 10.5
x2 = 0.8 | 6.88 | 7.72 | 8.59 | 9.69 | 10.7 | 11.8 | 13.1 | 14.6 | 16.1
x2 = 0.9 | 12.3 | 13.1 | 14.5 | 16.1 | 17.4 | 19 | 20.6 | 22.3 | 23.9

Reference: the CheMixHub drug solubility set
